In the assay the target is T1, human PAD4 (Homo sapiens, UniProt Q9UM07).
T1 construct: human PAD4 (NM_012387), A2-P663, was PCR amplified; His-SUMO (N, cleaved yes); made in house; host or cells: E. coli BL21(DE3)
The experiment in a line: In vitro PAD4 BAEE biochemical assay. The note with it: BAEE substrate 3 mM, 5 nM PAD4, 2 mM calcium chloride; geometric mean of multiple experiments. An outline of the steps:
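PAD4 5 nM, CaCl2 2 mM, BAEE 3 mM final; 50 mM MOPS pH 7.6, 50 mM NaCl, 0.05% Tween-20, 2 mM DTT. Cpd + enzyme 30 min 25 °C; substrate 2 h 25 °C; EDTA stop; OPA detection 1 h. IC50 4-parameter fit.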

What is called IC50 is the midpoint of a concentration-inhibition curve.

Each structure is given as a SMILES string.

T1 sequence (Q9UM07 2-663): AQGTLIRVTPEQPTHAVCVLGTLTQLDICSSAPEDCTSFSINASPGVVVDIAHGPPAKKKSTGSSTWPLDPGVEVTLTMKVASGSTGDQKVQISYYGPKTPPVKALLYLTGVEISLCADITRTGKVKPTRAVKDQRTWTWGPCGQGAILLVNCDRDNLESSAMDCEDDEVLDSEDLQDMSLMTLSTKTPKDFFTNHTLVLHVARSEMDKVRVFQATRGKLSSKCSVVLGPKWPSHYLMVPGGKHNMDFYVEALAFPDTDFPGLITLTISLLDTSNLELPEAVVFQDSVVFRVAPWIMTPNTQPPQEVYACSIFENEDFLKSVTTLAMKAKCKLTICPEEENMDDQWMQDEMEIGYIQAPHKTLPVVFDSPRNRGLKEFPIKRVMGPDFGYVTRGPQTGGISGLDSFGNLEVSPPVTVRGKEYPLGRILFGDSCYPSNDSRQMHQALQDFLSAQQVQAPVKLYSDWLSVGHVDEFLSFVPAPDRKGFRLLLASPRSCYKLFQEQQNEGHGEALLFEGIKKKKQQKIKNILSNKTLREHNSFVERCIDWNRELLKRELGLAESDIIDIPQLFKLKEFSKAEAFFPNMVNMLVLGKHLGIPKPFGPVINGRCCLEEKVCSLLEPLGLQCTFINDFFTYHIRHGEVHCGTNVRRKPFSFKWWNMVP

For `COc1cc(C(=O)N2[C@H]3CC[C@@H]2[C@H](N)C3)cc2nc(-c3cc4ccc5cc4n3CCCCCC[C@@](C)(OC)C(=O)N[C@@H]5C)n(C)c12` [Example 340, (8~{R},11~{R})-17-[5-[(1~{R},2~{R},4~{S})-2-amino-7-azabicyclo[2.2.1]heptane-7-carbonyl]-7-methoxy-1-methyl-benzimidazol-2-yl]-8-methoxy-8,11-dimethyl-1,10-diazatricyclo[10.5.2.0^{15,18}]nonadeca-12(19),13,15(18),16-tetraen-9-one], the IC50 amounted to 61 nM.
Under `COc1cc(C(=O)N[C@H]2CNCC[C@@H]2C(F)(F)F)cc2nc(-c3cc4ccc5nc4n3CCCCCCC(C)(C)C(=O)N[C@@H]5C)n(C)c12` [Example 380, 7-methoxy-1-methyl-~{N}-[(3~{R},4~{S})-4-(trifluoromethyl)-3-piperidyl]-2-[(11~{R})-8,8,11-trimethyl-9-oxo-1,10,19-triazatricyclo[10.5.2.0^{15,18}]nonadeca-12(19),13,15(18),16-tetraen-17-yl]benzimidazole-5-carboxamide] stands 1270 nM; under `COc1cc(C(=O)N2CCC[C@@H](N)C2)cc2nc(-c3cc4ccc5cc4n3CCCCC[C@@H]3C[C@H]3C(=O)N[C@@H]5C)n(C)c12` [Example 165, (2~{R},5~{R},7~{R})-14-[5-[(3~{R})-3-aminopiperidine-1-carbonyl]-7-methoxy-1-methyl-benzimidazol-2-yl]-2-methyl-3,13-diazatetracyclo[11.5.2.0^{5,7}.0^{16,20}] icosa-1(19),14,16(20),17-tetraen-4-one], 235 nM; under `COc1cc(C(=O)N2[C@H]3CC[C@@H]2[C@H](N)C3)cc2nc(-c3cc4ccc5nc4n3C[C@@H]3CC[C@@H]3COCCC(=O)N[C@@H]5C)c(C)n12` [Example 9, (3~{R},6~{S},13~{R})-19-[7-[(1~{R},2~{R},4~{S})-2-amino-7-azabicyclo[2.2.1]heptane-7-carbonyl]-5-methoxy-3-methyl-imidazo[1,2-a]pyridin-2-yl]-13-methyl-8-oxa-1,12,21-triazatetracyclo[12.5.2.0^{3,6}.0^{17,20}] henicosa-14(21),15,17(20),18-tetraen-11-one], 53 nM.
As to `COc1cc(C(=O)N2[C@H]3CC[C@@H]2[C@H](N)C3)cc2nc(-c3cc4ccc5nc4n3CC3(CC3)COCCC(=O)N[C@@H]5C)c(C)n12` [Example 329, (10~{R})-16-[7-[(1~{R},2~{R},4~{S})-2-amino-7-azabicyclo[2.2.1]heptane-7-carbonyl]-5-methoxy-3-methyl-imidazo[1,2-a]pyridin-2-yl]-10-methyl-spiro[5-oxa-1,9,18-triazatricyclo[9.5.2.0^{14,17}]octadeca-11(18),12,14(17),15-tetraene-3,1′-cyclopropane]-8-one], the IC50 is 48 nM.
Under `COc1cc(C(=O)N2CC[C@@H](OC)[C@@H](N)C2)cc2nc(-c3cc4ccc5nc4n3CCCC(F)(F)C[C@@H]3C[C@@H]3C(=O)N[C@@H]5C)n(C)c12` [Example 858, (2~{R},5~{S},7~{S})-14-[5-[(3~{S},4~{R})-3-amino-4-methoxy-piperidine-1-carbonyl]-7-methoxy-1-methyl-benzimidazol-2-yl]-9,9-difluoro-2-methyl-3,13,19-triazatetracyclo [11.5.2.0^{5,7}.0^{16,20}] icosa-1(19),14,16(20), 17-tetraen-4-one] stands 459 nM; under `COc1cc(C(=O)N2[C@H]3CC[C@@H]2[C@H](N)C3)cc2nc(-c3cc4ccc5nc4n3CCCCCn3nccc3C(=O)N[C@@H]5C)c(C)n12` [Example 32, (2~{R})-16-[7-[(1~{R},2~{R},4~{S})-2-amino-7-azabicyclo[2.2.1]heptane-7-carbonyl]-5-methoxy-3-methyl-imidazo[1,2-a]pyridin-2-yl]-2-methyl-3,8,9,15,21-pentazatetracyclo[13.5.2.0^{5,9}.0^{18,22}] docosa-1(21),5,7,16,18(22),19-hexaen-4-one], 12 nM; under `COc1cc(C(=O)N2CC[C@@H](OC)[C@@H](N)C2)cc2nc(-c3cc4ccc5nc4n3CCCCCCC(C)(C)C(=O)NC5C3CC3)n(C)c12` (stereo partly shown) [Example 778, 17-[5-[(3~{S),4~{R})-3-amino-4-methoxy-piperidine-1-carbonyl]-7-methoxy-1-methyl-benzimidazol-2-yl]-11-cyclopropyl-8,8-dimethyl-1,10,19-triazatricyclo [10.5.2.0^{15,18}]nonadeca-12,14,16,18-tetraen-9-one], 338 nM.
For the molecule `C[C@H]1NC(=O)[C@H]2[C@H](CCCC(F)(F)Cn3c(-c4nc5cc(C(=O)N[C@H]6CNCC[C@@H]6F)c(F)cc5n4C)cc4ccc1nc43)C2(F)F` [Example 378, 6-fluoro-~{N}-[(3~{S},4~{S})-4-fluoro-3-piperidyl]-1-methyl-2-[(2~{R},5~{R},7~{S})-6,6,11,11-tetrafluoro-2-methyl-4-oxo-3,13,19-triazatetracyclo[11.5.2.0^{5,7}.0^{16,20}]icosa-1(19),14,16(20),17-tetraen-14-yl]benzimidazole-5-carboxamide], the half-maximal inhibitory concentration (IC50) was determined as 41 nM.
`C[C@H]1NC(=O)[C@@H]2C[C@H]2CCCCCn2c(-c3nc4cc(C(=O)N[C@H]5CNCC[C@@H]5F)c(F)cc4n3CCOc3ccccc3)cc3ccc1nc32` [Example 429]: the 50% inhibitory concentration (IC50) stood at 68 nM.
Under `COc1cc(C(=O)N2C[C@H](N)[C@@H]3CC[C@H]2C3)cc2nc(-c3cc4ccc5nc4n3CCCCC[C@]3(F)C[C@H]3C(=O)N[C@@H]5C)c(C3CC3)n12` [Example 758, (2~{R},5~{S},7~{S})-14-[7-[(1~{S},4~{R},5~{R})-4-amino-2-azabicyclo[3.2.1]octane-2-carbonyl]-3-cyclopropyl-5-methoxy-imidazo[1,2-a]pyridin-2-yl]-7-fluoro-2-methyl-3,13,19-triazatetracyclo [11.5.2.0^{5,7}.0^{16,20}] icosa-1(19),14,16(20),17-tetraen-4-one] stands 17 nM.
In the case of `COc1cc(C(=O)N2CC[C@@H](OC)[C@@H](N)C2)cc2nc(-c3cc4ccc5nc4n3CCCCCc3ccncc3C(=O)N[C@@H]5C)n(C)c12` [Example 649, (2~{R})-17-[5-[(3~{S), 4~{R})-3-amino-4-methoxy-piperidine-1-carbonyl]-7-methoxy-1-methyl-benzimidazol-2-yl]-2-methyl-3,7,16,22-tetrazatetracyclo[14.5.2.0^ {5,10}.0^{19,23}] tricosa-1(22),5,7,9,17,19(23), 20-heptaen-4-one] it was 52 nM; in that of `C[C@H]1NC(=O)[C@@H]2C[C@@H]2CCCC(F)(F)Cn2c(-c3nc4cc(C(=O)N5C[C@H](N)[C@@H]6CC[C@H]5C6)cc(F)c4n3C3CC3)cc3ccc1nc32` [Example 682, (2~{R},5~{R},7~{S})-14-[5-[(1~{S},4~{R},5~{R})-4-amino-2-azabicyclo[3.2.1]octane-2-carbonyl]-1-cyclopropyl-7-fluoro-benzimidazol-2-yl]-11,11-difluoro-2-methyl-3,13,19-triazatetracyclo[11.5.2.0^ {5,7}.0^{16,20}] icosa-1(19),14,16(20), 17-tetraen-4-one], 28 nM.

The record behind these values is patent US11976083B2, “Inhibitors of peptidylarginine deiminases” (Gilead Sciences, Inc., priority 2020, dated 2024).
